Here are results for 1 molecule from patent US20240059915A1, “COLOR-CHANGE INK” (Société BIC, priority 2020, published 2024).

A short description of the data set: Solubility of Acid Blue 93 in several solvents. The format is physicochemical. Here is the method:
The solubility of Acid Blue 93, a water-soluble pH-sensitive triarylmethane dye, was determined by stirring 5 wt.-%0 of the dye in 95 wt.-%0 of the solvent. The following results reported in below Table 1 were obtained:
This is surprising since these water-soluble dyes are commonly known to be insoluble in organic solvents, as also seen in the above comparative solvents. In these comparative solvents, it can be observed that the solvent is not colored and that the dye remains in the form of particles and precipitates at the bottom of the recipient.

As to `O=S(=O)([O-])c1ccc(N=C2C=CC(=C(c3ccc(Nc4ccc(S(=O)(=O)[O-])cc4)cc3)c3ccc(Nc4ccc(S(=O)(=O)O)cc4)cc3)C=C2)cc1.[Na+].[Na+]` [Acid Blue 93], the Solubility entry (5 wt.-% dye stirred in 95 wt.-% 1,2-propanediol) is “Soluble”; the Solubility result (5 wt.-% dye stirred in 95 wt.-% 1-phenoxy-2-propanol) was “Insoluble”; the Solubility entry (5 wt.-% dye stirred in 95 wt.-% 1-phenoxy-ethanol) was “Insoluble”; the Solubility result (5 wt.-% dye stirred in 95 wt.-% Carbitol (CAS 111-90-0)) was “Insoluble”; the Solubility result (5 wt.-% dye stirred in 95 wt.-% benzylic alcohol) was “Insoluble”; the Solubility result (5 wt.-% dye stirred in 95 wt.-% cyrene) is “Insoluble”. Moreover, the Solubility result is “Soluble” (5 wt.-% dye stirred in 95 wt.-% diethyleneglycol), “Soluble” (5 wt.-% dye stirred in 95 wt.-% dimethylsulfoxide), “Insoluble” (5 wt.-% dye stirred in 95 wt.-% dipropylene glycol) and “Soluble” (5 wt.-% dye stirred in 95 wt.-% monoethyleneglycol).
